Publication PMC12626888, “Discovery of iridoid cyclase completes the iridoid pathway in asterids” (Nature Plants, 2025)

Tests used:
Format in all cases: biochemical
CrICYC [1] = biological target: T1, CrICYC (Catharanthus roseus, UniProt Z9BZX6L7S3); assay: spectrophotometric esterase assay, […] nm; settings: 2 mM substrate; 0.5 uM enzyme; 100 mM HEPES pH 7; 1 mM CaCl2; 25 °C
T1 construct: full-length CDS in pOPINF, His-tagged, E. coli SoluBL21 (DE3), Ni-NTA
T1 sequence (Z9BZX6L7S3 1-258): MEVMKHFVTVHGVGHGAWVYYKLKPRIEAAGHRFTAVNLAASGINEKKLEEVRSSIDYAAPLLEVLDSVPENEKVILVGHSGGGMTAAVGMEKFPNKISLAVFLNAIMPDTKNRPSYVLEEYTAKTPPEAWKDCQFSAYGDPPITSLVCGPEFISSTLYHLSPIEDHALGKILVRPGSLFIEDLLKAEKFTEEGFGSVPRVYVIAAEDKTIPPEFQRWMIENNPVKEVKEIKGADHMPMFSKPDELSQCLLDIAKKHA

SiICYC [2] = biological target: T2, SiICYC (Sesamum indicum, UniProt A0A6I9UJQ5); assay: spectrophotometric esterase assay, […] nm; settings: 2 mM substrate; 0.5 uM enzyme; 100 mM HEPES pH 7; 1 mM CaCl2; 25 °C
T2 construct: gene LOC105177689; synthetic full-length gene in pOPINF, His-tagged, E. coli SoluBL21 (DE3), Ni-NTA

LjICYC [3] = biological target: T3, LjICYC (Lonicera japonica, UniProt Z9XP04JJ76); assay: spectrophotometric esterase assay, […] nm; settings: 2 mM substrate; 0.5 uM enzyme; 100 mM HEPES pH 7; 1 mM CaCl2; 25 °C
T3 construct: synthetic full-length gene in pOPINF, His-tagged, E. coli SoluBL21 (DE3), Ni-NTA
T3 sequence (Z9XP04JJ76 1-260): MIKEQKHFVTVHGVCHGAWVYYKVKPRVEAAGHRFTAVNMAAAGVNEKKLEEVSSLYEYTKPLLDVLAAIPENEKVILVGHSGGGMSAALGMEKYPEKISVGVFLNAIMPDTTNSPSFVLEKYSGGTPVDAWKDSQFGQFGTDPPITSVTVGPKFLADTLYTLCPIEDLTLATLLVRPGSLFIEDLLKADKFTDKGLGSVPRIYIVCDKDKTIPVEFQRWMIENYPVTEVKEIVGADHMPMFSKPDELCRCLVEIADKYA

AsICYC [4] = biological target: T4, AsICYC (Alangium salviifolium, UniProt Z9MAI7V5A1); assay: spectrophotometric esterase assay, […] nm; settings: 2 mM substrate; 0.5 uM enzyme; 100 mM HEPES pH 7; 1 mM CaCl2; 25 °C
T4 construct: full-length CDS in pOPINF, His-tagged, E. coli SoluBL21 (DE3), Ni-NTA
T4 sequence (Z9MAI7V5A1 1-262): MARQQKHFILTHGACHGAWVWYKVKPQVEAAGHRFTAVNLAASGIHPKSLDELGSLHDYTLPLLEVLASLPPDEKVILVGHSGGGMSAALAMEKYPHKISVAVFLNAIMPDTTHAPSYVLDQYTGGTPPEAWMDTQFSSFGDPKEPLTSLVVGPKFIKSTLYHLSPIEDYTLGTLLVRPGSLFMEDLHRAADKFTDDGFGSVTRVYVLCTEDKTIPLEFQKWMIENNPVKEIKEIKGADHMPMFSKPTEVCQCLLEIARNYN

AmICYC [5] = biological target: T5, AmICYC (Antirrhinum majus, UniProt Z9RFY5ZUY7); assay: spectrophotometric esterase assay, […] nm; settings: 2 mM substrate; 0.5 uM enzyme; 100 mM HEPES pH 7; 1 mM CaCl2; 25 °C
T5 construct: synthetic full-length gene in pOPINF, His-tagged, E. coli SoluBL21 (DE3), Ni-NTA
T5 sequence (Z9RFY5ZUY7 1-261): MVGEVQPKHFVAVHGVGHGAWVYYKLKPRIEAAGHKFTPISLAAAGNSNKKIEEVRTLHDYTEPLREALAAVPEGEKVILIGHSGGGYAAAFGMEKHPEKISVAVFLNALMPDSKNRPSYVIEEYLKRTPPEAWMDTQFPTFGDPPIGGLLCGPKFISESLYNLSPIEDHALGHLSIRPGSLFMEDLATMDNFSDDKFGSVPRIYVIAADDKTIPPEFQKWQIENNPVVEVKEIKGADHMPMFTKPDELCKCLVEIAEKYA

CiICYC [6] = biological target: T6, CiICYC (Carapichea ipecacuanha, UniProt Z9ZM09DHC0); assay: spectrophotometric esterase assay, […] nm; settings: 2 mM substrate; 0.5 uM enzyme; 100 mM HEPES pH 7; 1 mM CaCl2; 25 °C
T6 construct: full-length CDS in pOPINF, His-tagged, E. coli SoluBL21 (DE3), Ni-NTA
T6 sequence (Z9ZM09DHC0 1-260): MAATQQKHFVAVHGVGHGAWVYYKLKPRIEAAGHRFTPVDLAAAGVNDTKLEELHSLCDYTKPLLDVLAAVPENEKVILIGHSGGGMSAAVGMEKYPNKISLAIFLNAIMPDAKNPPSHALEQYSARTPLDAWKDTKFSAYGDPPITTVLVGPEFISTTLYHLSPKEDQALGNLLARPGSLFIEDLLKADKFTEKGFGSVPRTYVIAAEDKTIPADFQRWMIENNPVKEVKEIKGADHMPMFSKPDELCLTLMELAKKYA

VcICYC [7] = biological target: T7, VcICYC (Vaccinium corymbosum, UniProt Z9DZC4CR80); assay: spectrophotometric esterase assay, […] nm; settings: 2 mM substrate; 0.5 uM enzyme; 100 mM HEPES pH 7; 1 mM CaCl2; 25 °C
T7 construct: synthetic full-length gene in pOPINF, His-tagged, E. coli SoluBL21 (DE3), Ni-NTA
T7 sequence (Z9DZC4CR80 1-256): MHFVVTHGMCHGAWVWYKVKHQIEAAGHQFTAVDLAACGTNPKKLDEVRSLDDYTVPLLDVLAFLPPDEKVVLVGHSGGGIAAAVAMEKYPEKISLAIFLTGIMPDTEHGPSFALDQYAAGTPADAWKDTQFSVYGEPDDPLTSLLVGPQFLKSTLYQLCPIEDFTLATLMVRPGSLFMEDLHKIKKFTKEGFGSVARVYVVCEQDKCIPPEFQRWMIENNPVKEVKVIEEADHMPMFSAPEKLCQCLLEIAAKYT

CrISY = biological target: T8, CrISY (Catharanthus roseus, UniProt K7WDL7); assay: GC-MS of products; settings: 0.5 mM 8-oxogeranial; 1 mM NADPH; 0.25 uM CrISY; 100 mM MOPS pH 7.5; 30 °C; 3 h
T8 construct: recombinant, E. coli, pOPINF His-tagged

AmISY = biological target: T9, AmISY (Antirrhinum majus, UniProt A0A221J5P3); assay: GC-MS of products; settings: 0.5 mM 8-oxogeranial; 1 mM NADPH; 0.5 uM AmISY; 100 mM MOPS pH 7.5; 30 °C; 3 h
T9 construct: gene ISY; recombinant, E. coli, pOPINF His-tagged
T9 sequence (A0A221J5P3 1-387): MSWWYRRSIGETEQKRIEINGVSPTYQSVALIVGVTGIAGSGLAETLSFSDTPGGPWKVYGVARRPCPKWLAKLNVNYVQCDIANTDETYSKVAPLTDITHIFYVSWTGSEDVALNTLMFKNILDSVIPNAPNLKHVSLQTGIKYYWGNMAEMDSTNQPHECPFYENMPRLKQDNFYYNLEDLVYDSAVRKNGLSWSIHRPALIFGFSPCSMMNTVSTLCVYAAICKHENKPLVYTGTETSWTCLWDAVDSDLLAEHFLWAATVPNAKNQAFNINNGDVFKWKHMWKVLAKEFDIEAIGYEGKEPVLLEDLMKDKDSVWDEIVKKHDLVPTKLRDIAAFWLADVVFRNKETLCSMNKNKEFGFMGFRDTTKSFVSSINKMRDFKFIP

SiICYC [8] = biological target: T2, SiICYC; assay: GC-MS of 7R-cis-cis nepetalactol formed in coupled assay with AmISY; settings: enol generated in situ from 0.5 mM 8-oxogeranial by AmISY with 1 mM NADPH; 2 uM ICYC; 100 mM MOPS pH 7.5; 30 °C; 3 h
AmICYC [9] = biological target: T5, AmICYC; assay: as above; settings: enol generated in situ from 0.5 mM 8-oxogeranial by AmISY with 1 mM NADPH; 2 uM ICYC; 100 mM MOPS pH 7.5; 30 °C; 3 h
VcICYC [10] = biological target: T7, VcICYC; assay: GC-MS of 7S-cis-trans nepetalactol formed in coupled assay with CrISY; settings: enol generated in situ from 0.5 mM 8-oxogeranial by CrISY with 1 mM NADPH; 2 uM ICYC; 100 mM MOPS pH 7.5; 30 °C; 3 h
AsICYC [11] = biological target: T4, AsICYC; assay: as above; settings: enol generated in situ from 0.5 mM 8-oxogeranial by CrISY with 1 mM NADPH; 2 uM ICYC; 100 mM MOPS pH 7.5; 30 °C; 3 h
LjICYC [12] = biological target: T3, LjICYC; assay: as above; settings: enol generated in situ from 0.5 mM 8-oxogeranial by CrISY with 1 mM NADPH; 2 uM ICYC; 100 mM MOPS pH 7.5; 30 °C; 3 h
CrICYC [13] = biological target: T1, CrICYC; assay: as above; settings: enol generated in situ from 0.5 mM 8-oxogeranial by CrISY with 1 mM NADPH; 2 uM ICYC; 100 mM MOPS pH 7.5; 30 °C; 3 h
CiICYC [14] = biological target: T6, CiICYC; assay: as above; settings: enol generated in situ from 0.5 mM 8-oxogeranial by CrISY with 1 mM NADPH; 2 uM ICYC; 100 mM MOPS pH 7.5; 30 °C; 3 h

T2 sequence (A0A6I9UJQ5 entry or part of it): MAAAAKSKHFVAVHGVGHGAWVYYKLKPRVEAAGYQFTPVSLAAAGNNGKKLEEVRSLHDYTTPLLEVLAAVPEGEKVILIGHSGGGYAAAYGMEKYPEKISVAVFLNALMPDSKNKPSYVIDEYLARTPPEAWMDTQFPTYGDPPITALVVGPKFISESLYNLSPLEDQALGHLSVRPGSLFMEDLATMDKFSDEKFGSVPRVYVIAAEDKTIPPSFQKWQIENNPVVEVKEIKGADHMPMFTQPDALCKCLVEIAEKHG
T8 sequence (K7WDL7 whole entry): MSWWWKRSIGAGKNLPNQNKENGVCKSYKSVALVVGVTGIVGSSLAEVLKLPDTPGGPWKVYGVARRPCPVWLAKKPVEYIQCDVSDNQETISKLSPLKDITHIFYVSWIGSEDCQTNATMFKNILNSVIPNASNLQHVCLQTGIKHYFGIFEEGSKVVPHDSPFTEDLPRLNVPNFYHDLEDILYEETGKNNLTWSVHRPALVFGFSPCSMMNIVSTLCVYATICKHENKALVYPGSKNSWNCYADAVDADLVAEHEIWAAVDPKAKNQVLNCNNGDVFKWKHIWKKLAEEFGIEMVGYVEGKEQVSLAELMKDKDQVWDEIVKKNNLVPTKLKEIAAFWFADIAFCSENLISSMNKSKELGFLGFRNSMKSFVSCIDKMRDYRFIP

`CC(=O)Oc1ccc([N+](=O)[O-])cc1` [4-nitrophenyl acetate] was tested, and the “spectrophotometric esterase assay, 405 nm” value (CrICYC [1]) was “All ICYC orthologues showed esterase activity when tested with the model substrate 4-nitrophenyl acetate”, the “spectrophotometric esterase assay, 405 nm” value (SiICYC [2]) was “All ICYC orthologues showed esterase activity when tested with the model substrate 4-nitrophenyl acetate” and the “spectrophotometric esterase assay, 405 nm” value (LjICYC [3]) was “All ICYC orthologues showed esterase activity when tested with the model substrate 4-nitrophenyl acetate”. For the same compound, the “spectrophotometric esterase assay, 405 nm” value (AsICYC [4]) was “All ICYC orthologues showed esterase activity when tested with the model substrate 4-nitrophenyl acetate”, the “spectrophotometric esterase assay, 405 nm” value (AmICYC [5]) was “All ICYC orthologues showed esterase activity when tested with the model substrate 4-nitrophenyl acetate” and the “spectrophotometric esterase assay, 405 nm” value (CiICYC [6]) was “All ICYC orthologues showed esterase activity when tested with the model substrate 4-nitrophenyl acetate”. The “spectrophotometric esterase assay, 405 nm” value (VcICYC [7]) was “All ICYC orthologues showed esterase activity when tested with the model substrate 4-nitrophenyl acetate”.
With `C/C(C=O)=C\CC/C(C)=C/C=O` [8-oxogeranial] the GC-MS of products (CrISY) was “CrISY and AmISY reduce 8-oxogeranial to form the unstable intermediate S- or R-8-oxocitronellyl enol” and the GC-MS of products (AmISY) was “CrISY and AmISY reduce 8-oxogeranial to form the unstable intermediate S- or R-8-oxocitronellyl enol”.
In the case of `C/C(C=O)=C\CC[C@@H](C)/C=C/O` [R-8-oxocitronellyl enol], the “GC-MS of 7R-cis-cis nepetalactol formed in coupled assay with AmISY” value (SiICYC [8]) is reported as “When AmISY was assayed with ICYC orthologues, a new peak appeared” and the “GC-MS of 7R-cis-cis nepetalactol formed in coupled assay with AmISY” value (AmICYC [9]) is reported as “When AmISY was assayed with ICYC orthologues, a new peak appeared”.
In the case of `C/C(C=O)=C\CC[C@H](C)/C=C/O` [S-8-oxocitronellyl enol], the “GC-MS of 7S-cis-trans nepetalactol formed in coupled assay with CrISY” value (shortened to “GC-MS … with CrISY”) (VcICYC [10]) is reported as “any of the ICYC orthologues, 7S-cis-trans (7S, 4aS, 7aS) nepetalactol accumulation was substantially increased”, the “GC-MS … with CrISY” value (AsICYC [11]) is reported as “any of the ICYC orthologues, 7S-cis-trans (7S, 4aS, 7aS) nepetalactol accumulation was substantially increased” and the “GC-MS … with CrISY” value (LjICYC [12]) is reported as “any of the ICYC orthologues, 7S-cis-trans (7S, 4aS, 7aS) nepetalactol accumulation was substantially increased”. For the same compound, the “GC-MS … with CrISY” value (CrICYC [13]) was “any of the ICYC orthologues, 7S-cis-trans (7S, 4aS, 7aS) nepetalactol accumulation was substantially increased” and the “GC-MS … with CrISY” value (CiICYC [14]) was “any of the ICYC orthologues, 7S-cis-trans (7S, 4aS, 7aS) nepetalactol accumulation was substantially increased”.
